Source: patent US20230054194A1, “Methods of Treating Cancer” (ARIAGEN, INC., priority 2018, published 2023)

Experiments:
Format in all cases: in vivo, mouse (BALB/C)
[1] = system: EMT-6; test: EMT-6 subcutaneous syngeneic breast cancer mouse model (Study 2 and Study 12), tumor growth inhibition; conditions: for TGI(%) / Tumor size (Mean ± SEM): EMT-6 model (Study 2), i.p., ARI-001 160/120 mg/kg QD × 15/6 doses, ARI-002 and ARI-003 160 mg/kg QD × 21 doses, Anti-PD-1 10 BIW × 6 doses, study end day Day 27; for anti-tumor potency of anti-PD-1 antibody combined with the compound, compared to the antibody alone or the vehicle / anti-tumor potency of the compound combined with anti-PD-1 antibody, compared to being used alone: EMT-6 syngeneic breast cancer model
Method: (§1) In this example, the in vivo anti-tumor efficacy of ARI-001, ARI-002, ARI-003, and ARI-143 and their combinations with an anti-PD-1 antibody was evaluated using a panel of twelve subcutaneous syngeneic mouse tumor models.
(§2) Eleven subcutaneous syngeneic mouse tumor models were generated by innoculating female BALB/C or C57BL/6 mice with cancer cells at their right lower or right front flank followed by randomization as detailed in Table 4 below.
(§3) A solution of a rat monoclonal anti-mouse PD-1 antibody (isotype IgG2a, κ) at a concentration of 6.61 mg/ml was obtained from BioXcell (InVivoMAb anti-mouse PD-1 (CD279), Clone RMP1-14, Cat #BE0146)) and store at 4° C. The antibody solution was diluted with PBS to obtain a 1 mg/ml dosing solution.
(§4) ARI-001, ARI-002, and ARI-003 powder was stored at −20° C. The powder of each compound was dissolved in DMSO to obtain dosing solutions at 106.7, 80, and 53.33 mg/ml for administration to mice at 160, 120, and 80 mg/kg, respectively. ARI-143 was similarly prepared.
(§5) Twelve studies using the twelve subcutaneous syngeneic mouse tumor models were performed. In each study, 80 mice were enrolled and randomly allocated to eight different study groups, with 10 mice in each study group. The mean tumor size at randomization was approximately 80-120 mm^3 (around 100 mm^3). Randomization was performed based on “Matched distribution” randomization method (StudyDirector™ software, version 3.1.399.19). […] All the drugs and vehicle controls were injected to the mice intraperitoneally.
(§6) After tumor cell inoculation, the animals were checked daily for morbidity and mortality. At the time of routine monitoring, the animals were checked for any effects of tumor growth and treatments on behavior such as mobility, food and water consumption, body weight gain/loss (body weights were measured twice or three times per week after randomization), and any other abnormalities. Mortality and observed clinical signs were recorded for individual animals. Tumor volumes were measured twice or three times weekly after randomization in two dimensions using a caliper, and the volume was expressed in mm^3 using the formula: […]
(§7) where V is tumor volume, L is tumor length (the longest tumor dimension) and W is tumor width (the longest tumor dimension perpendicular to L).
(§8) The study was terminated when the mean tumor volume (MTV) in the vehicle group reached a value of 2,000 mm^3. Tumor growth inhibition (TGI) is an indication of antitumor activity, and expressed as: […]
(§9) where T and C are the MTV (or weight) of the treated and control groups, respectively, on a given day. Statistical analysis of the difference in MTV among the groups was conducted using the data collected on the day when the MTV of the vehicle group reached the humane endpoints, so that TGI could be derived for all or most mice enrolled in the study.
(§10) Statistical analysis of differences in MTV among the groups was conducted by Independent-Samples T Test using the data collected. All data were analyzed with SPSS (Statistical Product and Service Solutions) version 18.0 (IBM, Armonk, N.Y., U.S.). P-values were rounded to three decimal places, with the exception that raw P-values less than 0.001 were stated as P<0.001. All tests were two-sided. P<0.05 was considered to be statistically significant.
FIG. 61 is a graph showing the mean tumor volume on different study days in the study groups as indicated according to Study 2 (EMT-6). The study end day was Day 27.

[2] = system: A20; test: A20 subcutaneous syngeneic lymphoma mouse model (Study 5), tumor growth inhibition; conditions: for TGI(%) / Tumor size (Mean ± SEM): A20 model, i.p., ARI compounds 160 mg/kg QD × 14 doses, Anti-PD-1 10 BIW × 4 doses, study end day Day 26
Method: as §1, §2, §3, §4, §5, §6, §7, §8, §9, §10
FIG. 64 is a graph showing the mean tumor volume on different study days in the study groups as indicated according to Study 5 (A20). The study end day was Day 26.

[3] = system: H22; test: H22 subcutaneous syngeneic liver cancer mouse model (Study 11), tumor growth inhibition; conditions: for Tumor size / TGI(%): H22 model, study end day Day 18; for Tumor size: Mean ± SEM, in mm³
Method: as §1, §2, §3, §4, §5, §6, §7, §8, §9, §10
FIG. 70 is a graph showing the mean tumor volume on different study days in the study groups as indicated according to Study 11 (H22). The study end day was Day 18.

Row | SMILES | TGI(%) [1] | Tumor size (Mean ± SEM) [1] | anti-tumor potency of anti-PD-1 antibody combined with the compound, compared to the antibody alone or the vehicle [1] | anti-tumor potency of the compound combined with anti-PD-1 antibody, compared to being used alone [1] | TGI(%) [2] | Tumor size (Mean ± SEM) [2] | Tumor size [3] | TGI(%) [3] | anti-tumor potency of the compound combined with anti-PD-1 antibody, compared to being used alone ([2]; A20 syngeneic lymphoma tumor model) | anti-tumor potency of the compound combined with anti-PD-1 antibody, compared to being used alone ([3]; H22 syngeneic liver cancer model)
1 | COC(=O)c1csc(C(=O)c2c[nH]c3ccccc23)n1 [ARI-001] | 53% | 871.63 ± 142.67 mm^3 | statistically significant increase | statistically significant increase | 55% | 1190.08 ± 205.09 mm^3 | 1139.95 ± 207.21 | 50% |  | 
2 | CCC(=O)c1csc(C(=O)c2c[nH]c3ccccc23)n1 [ARI-002] | 55% | 842.08 ± 135.38 mm^3 | statistically significant increase | statistically significant increase | 45% | 1446.75 ± 149.90 mm^3 | 1261.07 ± 203.55 | 44% | statistically significant increase | statistically significant increase
